{"source": "patent US20070155673A1", "about": "“USE OF BVDU FOR INHIBITING THE GROWTH OF HYPERPROLIFERATIVE CELLS” (Celmed Oncology (USA), Inc., priority 1999, published 2007)", "key": {"[1]": {"test_system": "CCD18co", "assay": "Cyquant and crystal violet cytotoxicity", "format": "cell-based", "conditions": "for IC50: CCD18co, normal colon epithelium, 72 hour incubation", "description": "(§1) Cvquant and Crystal Violet Cytotoxicity Exponentially growing cells were transferred at a density of 1.0-4.0×10^3 cells per well to a 96-well tissue culture plate in growth medium (RPMI1640+10% FBS+antibiotics). Cells were allowed to attach for 24 hours in standard culture conditions (37° C., 5% CO2, 95% humidity). Experimental compounds were then applied in duplicate half log serial dilutions. After additional 72 hour incubation, surviving cells were stained with crystal violet (adherent cells) or Cyquant (semi or non—adherent cells). Absorbence or fluorescence, respectively, was monitored. IC50 values were derived from sigmoid curves fit according to the Hill inhibitory Emax model.\n(§2) The selectivity of a given antitumor agent can be assessed by comparing the IC50 for a tumor cell line to the IC50 of a normal cell strain growing under the same conditions, determined and Cyquant staining for non-adherent cells, and crystal violet staining for adherent cells. The selectivity is given here as the ratio of normal cell IC50 to tumor cell IC50. In this case, normal cell IC50 is defined as the average of the value for CCD18co and Det551 to allow for direct comparison of the established cancer drug 5-FU with BVdU."}, "[2]": {"test_system": "Det 551", "assay": "Cyquant and crystal violet cytotoxicity", "format": "cell-based", "conditions": "for IC50: Det 551, normal embryonic skin, 72 hour incubation", "description": "as §1, §2"}, "[3]": {"test_system": "H630-R10", "assay": "Cyquant and crystal violet cytotoxicity", "format": "cell-based", "conditions": "for IC50: H630-R10, tumor - colon, 5-FU resistant, high TS, 72 hour incubation; for normal/tumor IC50 ratio: normal IC50 = average of CCD18co and Det551", "description": "as §1, §2"}, "[4]": {"test_system": "MCF7 TDX", "assay": "Cyquant and crystal violet cytotoxicity", "format": "cell-based", "conditions": "for normal/tumor IC50 ratio: normal IC50 = average of CCD18co and Det551; for IC50: tumor - breast, TDX resistant, high TS, 72 hour incubation", "description": "as §1, §2"}, "[5]": {"test_system": "MCF7", "assay": "Cyquant and crystal violet cytotoxicity", "format": "cell-based", "conditions": "for IC50: MCF7, tumor - breast, parental control, 72 hour incubation; for normal/tumor IC50 ratio: normal IC50 = average of CCD18co and Det551", "description": "as §1, §2"}, "[6]": {"test_system": "SKBR3 #52", "assay": "Cyquant and crystal violet cytotoxicity", "format": "cell-based", "conditions": "for IC50: SKBR3 #52, tumor - breast, high TS transfectant, 72 hour incubation; for normal/tumor IC50 ratio: normal IC50 = average of CCD18co and Det551", "description": "as §1, §2"}, "[7]": {"test_system": "SKBR3 V", "assay": "Cyquant and crystal violet cytotoxicity", "format": "cell-based", "conditions": "vector control, low TS, 72 hour incubation", "description": "as §1, §2"}, "[8]": {"test_system": "SW527P", "assay": "Cyquant and crystal violet cytotoxicity", "format": "cell-based", "conditions": "tumor - breast, parental control, 72 hour incubation", "description": "as §1, §2"}, "[9]": {"test_system": "SW527TDX", "assay": "Cyquant and crystal violet cytotoxicity", "format": "cell-based", "conditions": "for normal/tumor IC50 ratio: normal IC50 = average of CCD18co and Det551; for IC50: tumor - breast, TDX resistant, high TS, 72 hour incubation", "description": "as §1, §2"}, "[10]": {"test_system": "TS HT1080 #12", "assay": "Cyquant and crystal violet cytotoxicity", "format": "cell-based, human", "conditions": "for IC50: TS HT1080 #12, tumor - fibrosarcoma, high TS transfectant, 72 hour incubation; for normal/tumor IC50 ratio: normal IC50 = average of CCD18co and Det551", "description": "as §1\nCell transfection. HT1080 cells were grown in RPMI1640 medium supplemented with 10% FBS, and transfected with TS expression vector. 48 hours later, transfected cells were trypsinized and replated in culture medium containing 750 μg/ml G418. After selection with G418 for two weeks, surviving cells were cloned. Clones with different TS levels were selected based on Western blot analysis, and expanded into cell lines. The stable HT1080 cells transfected with pcDNA3.1(−) only were used as control.\nas §2"}, "[11]": {"test_system": "H630 R10", "assay": "alamarBlue cytotoxicity assay", "format": "cell-based", "conditions": "for IC50: alamarBlue, drug exposure 120 hours, 5-FU resistant colon tumor cell line", "description": "(§3) alamarBlue cytotoxicity assay Tumor cells growing exponentially were transferred to 384 well flat bottom tissue culture plates. H630 R10 were plated at a density of 500 cells per well and MCF7 TDX at 250 cells/well in 25 μL of complete medium (RPMI 1640+10% fetal bovine serum+antibiotics/antimyotics). After 24 hours (day 0), 25 μL of complete medium containing the compounds (NB1011 or BVdU) over the dose range of 10^−3 to 10^−10 M were added in triplicate. Drug exposure time was 120 hours (day 5), after which growth inhibition was assayed. The redox indicator alamarBlue was added to each well at 10% (v/v). After 1-hour incubation at room temperature, fluorescence was monitored at 536 nm excitation and 595 nm emission. Concentration versus relative fluorescence units (RFU) was plotted, and sigmoid curves were fit using the Hill equation. IC50, indicated by the inflection point of the curve, is the concentration at which growth is inhibited by 50%.\n(§4) H630 R10 is a colon cancer tumor cell line selected for resistance to 5-FU, and overexpresses thymidylate synthase protein approximately 20-fold. MCF7 TDX is a breast tumor cell line selected with Tomudex, and overexpresses thymidylate synthase to approximately the same extent."}, "[12]": {"test_system": "MCF7 TDX", "assay": "alamarBlue cytotoxicity assay", "format": "cell-based", "conditions": "for IC50: alamarBlue", "description": "as §3, §4"}, "[13]": {"test_system": "PC HT1080", "assay": "Sensitivity of thymidine kinase transfected HT1080 cell lines to BVdU", "format": "cell-based", "conditions": "Homo sapiens, HT-1080; PC HT1080, TK protein level 100 units", "from_the_text": "(§5) Cell lines that overexpress human thymidine kinase (TK) are also more sensitive to BVdU, providing another criterion for identification of tumor susceptibility to BVdU."}, "[14]": {"test_system": "TKC HT1080 #22", "assay": "Sensitivity of thymidine kinase transfected HT1080 cell lines to BVdU", "format": "cell-based", "conditions": "Homo sapiens, HT-1080; TKC HT1080 #22, TK protein level 400 units", "from_the_text": "as §5"}, "[15]": {"test_system": "TKC HT1080 #5", "assay": "Sensitivity of thymidine kinase transfected HT1080 cell lines to BVdU", "format": "cell-based", "conditions": "Homo sapiens, HT-1080; TKC HT1080 #5, TK protein level 200 units", "from_the_text": "as §5"}, "[16]": {"test_system": "H630 R10", "conditions": "previously shown; cited from earlier work"}}}
{"compound": "O=c1[nH]cc(F)c(=O)[nH]1", "note": "[5-FU, reference compound]", "values": [{"measurement": "IC50", "setting": "[1]", "result": "1.4 ± 0.4", "unit": "µM"}, {"measurement": "IC50", "setting": "[2]", "result": "3.1 ± 0.5", "unit": "µM"}, {"measurement": "IC50", "setting": "[3]", "result": "143 ± 5.9", "unit": "µM"}, {"measurement": "normal/tumor IC50 ratio", "setting": "[3]; H630-R10", "result": 0.15}, {"measurement": "normal/tumor IC50 ratio", "setting": "[4]", "result": 0.33}, {"measurement": "IC50", "setting": "[4]", "result": "6.7 ± 2", "unit": "µM"}, {"measurement": "IC50", "setting": "[5]", "result": "8.8 ± 5.9", "unit": "µM"}, {"measurement": "normal/tumor IC50 ratio", "setting": "[5]; MCF7", "result": 0.25}, {"measurement": "IC50", "setting": "[6]", "result": "9.1 ± 1.6", "unit": "µM"}, {"measurement": "normal/tumor IC50 ratio", "setting": "[6]; SKBR3 #52", "result": 0.24}, {"measurement": "IC50", "setting": "[7]; tumor - breast", "result": "7.4 ± 2.4", "unit": "µM"}, {"measurement": "IC50", "setting": "[8]", "result": "9.1 ± 1.3", "unit": "µM"}, {"measurement": "normal/tumor IC50 ratio", "setting": "[9]", "result": 0.11}, {"measurement": "IC50", "setting": "[9]", "result": "20.4 ± 9.9", "unit": "µM"}, {"measurement": "IC50", "setting": "[10]", "result": "3.5 ± 0.2", "unit": "µM"}, {"measurement": "normal/tumor IC50 ratio", "setting": "[10]; TS HT1080 #12", "result": 0.64}]}
{"compound": "O=c1[nH]c(=O)n([C@H]2C[C@H](O)[C@@H](CO)O2)cc1/C=C/Br", "note": "[BVdU, (E)-5-(2-bromovinyl)-2′-deoxyuridine]", "values": [{"measurement": "fold less active than NB1011", "setting": "[11]; H630R10 cells, from IC50", "result": "~6", "unit": "fold"}, {"measurement": "IC50", "setting": "[11]; Homo sapiens, NCI-H630", "result": 303, "unit": "µM"}, {"measurement": "IC50", "setting": "[12]; Homo sapiens, MCF7, Tomudex resistant breast cancer cell line", "result": 0.005, "unit": "µM"}, {"measurement": "IC50", "setting": "[12]; Homo sapiens, MCF7, drug exposure 120 hours, Tomudex resistant breast tumor cell line", "result": 0.005, "unit": "µM"}, {"measurement": "fold more active than NB1011", "setting": "[12]; MCF7 TDX cells, from IC50", "result": "~25", "unit": "fold"}, {"measurement": "IC50", "setting": "[1]; Homo sapiens, CCD-18Co", "result": "4820 ± 128", "unit": "µM"}, {"measurement": "anti-proliferative effect (in words)", "setting": "[1]; normal cell strain representing colon, even high concentrations", "result": "not affected"}, {"measurement": "IC50", "setting": "[2]", "result": "2190 ± 682", "unit": "µM"}, {"measurement": "anti-proliferative effect (in words)", "setting": "[2]; normal cell strain representing skin, even high concentrations", "result": "not affected"}, {"measurement": "times the 5-FU normal/tumor ratio", "setting": "[3]; H630-R10", "result": 42, "unit": "times"}, {"measurement": "IC50", "setting": "[3]", "result": "561 ± 157", "unit": "µM"}, {"measurement": "normal/tumor IC50 ratio", "setting": "[3]; H630-R10", "result": 6.3}, {"measurement": "times the 5-FU normal/tumor ratio", "setting": "[4]", "result": "18,000 times"}, {"measurement": "IC50", "setting": "[4]; Homo sapiens", "result": "0.6 ± 0.5", "unit": "µM"}, {"measurement": "normal/tumor IC50 ratio", "setting": "[4]", "result": 5847}, {"measurement": "IC50", "setting": "[5]; Homo sapiens", "result": 1250, "unit": "µM"}, {"measurement": "selectivity relative to 5-FU", "setting": "[5]; MCF7", "result": "more than ten times as selective as 5-FU"}, {"measurement": "normal/tumor IC50 ratio", "setting": "[5]; MCF7", "result": 2.8}, {"measurement": "IC50", "setting": "[6]; Homo sapiens, SK-BR-3", "result": 8.3, "unit": "µM"}, {"measurement": "times the 5-FU normal/tumor ratio", "setting": "[6]; SKBR3 #52", "result": "2,000 times"}, {"measurement": "normal/tumor IC50 ratio", "setting": "[6]; SKBR3 #52", "result": 423}, {"measurement": "IC50", "setting": "[7]; Homo sapiens, SK-BR-3, tumor - breast", "result": "> 1000", "unit": "µM"}, {"measurement": "IC50", "setting": "[8]", "result": "> 1000", "unit": "µM"}, {"measurement": "times the 5-FU normal/tumor ratio", "setting": "[9]", "result": "5,000 times"}, {"measurement": "normal/tumor IC50 ratio", "setting": "[9]", "result": 540}, {"measurement": "IC50", "setting": "[9]", "result": 6.5, "unit": "µM"}, {"measurement": "IC50", "setting": "[10]; Homo sapiens, HT-1080", "result": "5.7 ± 1.8", "unit": "µM"}, {"measurement": "times the 5-FU normal/tumor ratio", "setting": "[10]; TS HT1080 #12", "result": 961, "unit": "times"}, {"measurement": "normal/tumor IC50 ratio", "setting": "[10]; TS HT1080 #12", "result": 615}, {"measurement": "IC50", "setting": "[13]", "result": 303, "unit": "µM"}, {"measurement": "IC50", "setting": "[14]", "result": 162, "unit": "µM"}, {"measurement": "IC50", "setting": "[15]", "result": 275, "unit": "µM"}, {"measurement": "sensitivity of H630 R10 (in words)", "setting": "[16]", "result": "insensitive"}]}
{"compound": "C[C@H](NP(=O)(OC[C@H]1O[C@@H](n2cc(/C=C/Br)c(=O)[nH]c2=O)C[C@@H]1O)Oc1ccccc1)C(=O)O", "note": "(stereo partly drawn) [NB1011, reference compound]", "values": [{"measurement": "IC50", "setting": "[11]", "result": 57, "unit": "µM"}, {"measurement": "IC50", "setting": "[12]; drug exposure 120 hours, Tomudex resistant breast tumor cell line", "result": 0.13, "unit": "µM"}]}
